{"source": "patent US20170218375A1", "about": "“MORPHOLINOS, MORPHOLINO UPREGULATING, AND ASSOCIATED METHODS” (University of Utah Research Foundation, priority 2011, published 2017)", "test_system": "suture-induced corneal neovascularization and lymphangiogenesis", "assay": "Mouse corneal suture model (CD31 and LYVE-1 stained cornea flatmount)", "format": "in vivo", "conditions": "for suppression of suture-induced neovascularization: CD31; for suppression of lymphangiogenesis: LYVE-1", "protocol": "In another aspect, a corneal suture model can be used to evaluate angiogenesis. For the one week subarm, each morpholino or DPBS was injected subconjunctivally one day prior to and four days after suturing; the corneas were harvested at seven days post suturing. For the two week subarm, each morpholino or DPBS was injected subconjunctivally one day prior and four, seven and ten days after suturing; the corneas were harvested at fourteen days. CD31 and LYVE-1 were used as markers of neovascularization and lymphangiogenesis, respectively. FIGS. 10 and 11 representative images of CD31 stained corneas at one week and LYVE-1 stained corneas at two weeks, respectively.\nUnder anesthesia, 15 μl of moVEGFR2_MOe13 (40 ng/μl), STD_MO (40 ng/μl) or DPBS was injected subconjunctivally into two different places one day prior to the placement of 2 symmetrical 11-0 nylon sutures, followed by re-injection at four days after suture placement. Eyes were harvested 7 days after suture placement. In a second group, 15 μl of moVEGFR2_MOe13 (40 ng/μl), STD_MO (40 ng/μl) or DPBS was injected subconjunctivally into two different places one day prior to the placement of 2 symmetrical 11-0 nylon sutures. Subconjunctival injections were repeated at four, seven and ten days after suture placement. Eyes were harvested 14 days after suture placement. The corneas were fixed in acetone at room temperature for 20 minutes. After 4 washes in PBST (0.1% Tween20/PBS), the corneas were incubated in 3% BSA/PBS at 4° C. for 3 days. To detect CD31 and LYVE1, corneas were incubated in 3% BSA/PBS with FITC-conjugated rat anti-CD31 antibody (553372, 1:500, BD Biosciences, San Jose, Calif.) or rabbit anti-LYVE-1 (ab14917, 1:200, Abcam, Cambridge, Mass.) overnight at 4° C. After 3 washes in PBST, the corneas were incubated in 3% BSA/PBS with Alexa Fluor® 546 conjugated goat anti-rabbit IgG (A11071, 1:2000, Invitrogen Corporation, Carlsbad, Calif.) for one hour at room temperature. After 4 washes in PBST, corneas were mounted on slide glass with Fluoro-gel (Electron Microscopy Sciences, Hatfield, Pa.). Fluorescence was observed by fluorescence microscope (Carl Zeiss MicroImaging, Inc., Thornwood, N.Y.). The data for each suture was calculated by ImageJ separately. Areas where sutures had fallen out were not included in the final calculations.", "note": "{Dendrimer} = dendrimer conjugate (vivo-morpholino)"}
{"substance": "5′-cacccagggatgcctccatacCTAG-3′ (antisense CACCCAGGGATGCCTCCATACCTAG; all phosphorodiamidate morpholino (PMO), 3' {Dendrimer}) [moVEGFR2_MOe13, morpholino that targets the exon13-intron13 junction of the mouse VEGFR2 gene; in vivo conjugated with a dendrimer (vivo-morpholino)]", "values": [{"measurement": "suppression of suture-induced neovascularization", "setting": "1 week, 15 μl of 40 ng/μl subconjunctivally one day prior to and four days after suturing, compared to DPBS, p<0.001", "value": 52.2, "unit": "%"}, {"measurement": "suppression of lymphangiogenesis", "setting": "2 weeks after suture placement, compared to DPBS, p<0.05", "value": 27.8, "unit": "%"}, {"measurement": "suppression of suture-induced neovascularization", "setting": "2 weeks, 15 μl of 40 ng/μl subconjunctivally one day prior and four, seven and ten days after suturing, compared to DPBS, p<0.05", "value": 29.6, "unit": "%"}, {"measurement": "suppression of lymphangiogenesis", "setting": "one week after suture placement", "value": "did not suppress"}]}
